Measured values reported in PubChem BioAssay (NCI).
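Each compound was tested at five concentrations against cells in 96-well plates for 48 hours. Here, GI50 denotes the concentration required for 50% inhibition of growth. TGI marks complete inhibition of growth.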 *1 amine or outer side, *2 acyl side, *3 side chain or, on linkers, in order; H or OH if unused. Where a SMILES comes first, the peptide text is derived from it. [ ]: non-standard residue; d: D form. X33 = C=CCC(O[*:1])C(=O)[*:2]; NMeV = CN[CH](C(=O)O)C(C)C; NMeA = CN[CH](C)C(=O)O; βAla = NCCC(=O)O

Assays:
Assay in all cases: DTP human tumour cell line panel, 48 h
NCI-H226 lung = test system: NCI-H226 lung
EKVX NSCLC = test system: EKVX NSCLC
SF-268 CNS = test system: SF-268 CNS
SN12C renal = test system: SN12C renal
U251 CNS = test system: U251 CNS
CCRF-CEM leukemia = test system: CCRF-CEM leukemia
CAKI-1 renal = test system: CAKI-1 renal
BT-549 breast = test system: BT-549 breast
NCI-H522 lung = test system: NCI-H522 lung
SF-539 CNS = test system: SF-539 CNS
SNB-19 CNS = test system: SNB-19 CNS
MDA-MB-435 = test system: MDA-MB-435
SR leukemia = test system: SR leukemia
SNB-75 CNS = test system: SNB-75 CNS
SW-620 colon = test system: SW-620 colon
HCC-2998 colon = test system: HCC-2998 colon
SK-MEL-28 melanoma = test system: SK-MEL-28 melanoma

| Compound | TGI (NCI-H226 lung) [µM] | TGI (EKVX NSCLC) [µM] | TGI (SF-268 CNS) [µM] | TGI (SN12C renal) [µM] | TGI (U251 CNS) [µM] | TGI (CCRF-CEM leukemia) [µM] | TGI (CAKI-1 renal) [µM] | TGI (BT-549 breast) [µM] | TGI (NCI-H522 lung) [µM] | TGI (SF-539 CNS) [µM] | TGI (SNB-19 CNS) [µM] | TGI (MDA-MB-435) [µM] | TGI (SR leukemia) [µM] | TGI (SNB-75 CNS) [µM] | TGI (SW-620 colon) [µM] | TGI (HCC-2998 colon) [µM] | TGI (SK-MEL-28 melanoma) [µM] | GI50 (SN12C renal) [µM] | GI50 (MDA-MB-435) [µM] |
| --- | --- | --- | --- | --- | --- | --- | --- | --- | --- | --- | --- | --- | --- | --- | --- | --- | --- | --- | --- |
| CC(C)(C)[Si](C)(C)OCCOCn1cc(F)c(=O)[nH]c1=O | > 100 | > 100 | > 100 | > 100 | > 100 | > 100 | > 100 | > 100 | > 100 | > 100 | > 100 | > 100 | > 100 | > 100 | > 100 | – | – | – | – |
| O=C(Cc1ccccc1)NNc1nc(NNC(=O)c2ccncc2)nc(Nc2cccc(Cl)c2)n1 | – | > 10 | > 10 | > 10 | > 10 | > 10 | > 10 | > 10 | – | > 10 | – | – | > 10 | > 10 | > 10 | > 10 | > 10 | – | – |
| Nc1nc(N)c2[nH]cnc2n1 (tested in a mixture with another compound) | > 100 | 60.1 | > 100 | > 100 | > 100 | > 100 | > 100 | > 100 | 54.2 | > 100 | > 100 | 77.5 | > 100 | > 100 | > 100 | – | > 100 | – | – |
| COc1cc(Oc2nc3c(N)cc(C(F)(F)F)cc3nc2-c2ccccc2)cc(OC)c1OC | > 78.2 | > 100 | > 100 | > 100 | > 45.7 | > 31.6 | > 45.2 | 34.5 | 18.8 | 14.3 | 27.6 | – | > 100 | 26 | > 26.2 | > 55.1 | > 68.7 | – | – |
| CC(C)(C)OC(=O)N(CCNS(=O)(=O)c1cccc2cnccc12)CCC(=O)ON1C(=O)CCC1=O | > 100 | > 100 | > 100 | > 100 | > 100 | – | – | > 100 | > 100 | – | > 100 | > 100 | > 100 | > 100 | > 100 | – | > 100 | – | – |
| CC12c3c4cc(Br)cc3Oc3cc(Br)cc(c31)Oc1cc(Br)cc(c12)O4 | 41.3 | 82.6 | 28.2 | 83.4 | > 100 | – | – | 52.7 | – | > 100 | > 100 | > 100 | > 100 | 31.3 | > 100 | > 100 | > 100 | – | – |
| Cc1ccc(S(=O)(=O)Nn2c(S)c(C#N)c(-c3ccc([N+](=O)[O-])cc3)c(C#N)c2=O)cc1 | > 100 | > 100 | > 100 | 37.3 | 98 | 52.6 | > 100 | 29.6 | 30.2 | 35.4 | – | 53.9 | – | > 100 | 35.1 | > 100 | > 100 | – | – |
| CCOc1cc2c(cc1O)/C(=N/NS(=O)(=O)c1ccc(C)cc1)C[C@@H]1[C@@H]2CC[C@]2(C)[C@@H](O)CC[C@@H]12 | 68.7 | > 100 | > 100 | > 100 | > 100 | > 100 | > 100 | > 100 | > 100 | 65.6 | > 100 | > 100 | – | 67.7 | > 100 | 15.1 | > 100 | 12.1 | 0.917 |
| NC(CCC(=O)O)(CCC(=O)O)CCC(=O)O | > 100 | > 100 | > 100 | > 100 | > 100 | > 100 | > 100 | > 100 | > 100 | > 100 | > 100 | > 100 | > 100 | > 100 | > 100 | – | – | – | – |
| Oc1ccc(/C=C/c2ccc3cccc(O)c3n2)cc1O | – | 30.8 | > 100 | 12.8 | 20.6 | > 100 | > 100 | 4.03 | – | 9.46 | 20.9 | > 100 | 18.6 | 9.65 | > 100 | 26.9 | 89.5 | – | – |
| O=C(CCCN1CCC2(CC1)CC(=O)N(N1CCCCCC1)C2=O)c1ccc(F)cc1 | – | > 100 | > 100 | > 100 | > 100 | > 100 | > 100 | > 100 | > 100 | > 100 | – | > 100 | > 100 | > 100 | > 100 | – | > 100 | – | – |
| C=CCC1OC(=O)CCNC(=O)C(C)N(C)C(=O)C(C(C)C)N(C)C(=O)C(C(C)CC)NC(=O)C2CCCN2C1=O (stereo not given) (cyclo([X33]PI[NMeV][NMeA][βAla]); configuration not given here) | – | > 100 | > 100 | > 100 | > 100 | > 100 | > 100 | > 100 | > 100 | > 100 | > 100 | > 100 | > 100 | > 100 | > 100 | > 100 | > 100 | – | – |
| O=C1/C(=C/c2c(Cl)[nH]c3ccccc23)c2ccccc2N1c1ccccc1 | – | 27.2 | 33.2 | 20.3 | 22.9 | 31.9 | > 100 | 21.2 | 10.7 | 7.44 | > 100 | 4.12 | 19.6 | 37.8 | 41.7 | 20.7 | 23.8 | – | – |
| COc1ccc(C(=O)/C=C/c2cccnc2)cc1OC | 24.8 | 28.7 | 26.7 | 18.3 | 16.7 | > 100 | 15.7 | 19.3 | 3.5 | 6.4 | 27.6 | 30.1 | 6.02 | 24.4 | – | – | 33.1 | – | – |
| Cc1ccc2c(c1)-c1c(C#N)c(N)nc(-c3ccccc3)c1CCS2(=O)=O | > 30.2 | > 100 | > 100 | > 100 | > 90.7 | > 100 | > 100 | > 43.4 | 4.58 | > 100 | > 46.9 | > 36.5 | – | 59.2 | > 100 | > 100 | > 100 | – | – |
| O=C(Cc1ccccc1)NCCCN(CCCCN(CCCNC(=O)Cc1ccccc1)C(=O)OCc1ccccc1)C(=O)OCc1ccccc1 | > 100 | > 100 | > 100 | > 100 | > 100 | > 29.5 | – | > 100 | 12.2 | > 100 | – | > 100 | > 100 | – | > 100 | > 100 | > 100 | – | – |
| c1ccc(C2OCC(OC3CCCCO3)CO2)cc1 (stereo not given) | > 100 | > 100 | > 100 | > 100 | > 100 | – | > 100 | > 100 | > 100 | > 100 | > 100 | > 100 | > 100 | – | > 100 | > 100 | > 100 | – | – |
| O=S(=O)(O)c1ccc2c(N=Nc3ccc(F)cc3)c(O)c(S(=O)(=O)O)cc2c1 | – | > 100 | > 100 | > 100 | > 100 | > 100 | > 100 | > 100 | > 100 | – | > 100 | > 100 | > 100 | > 100 | > 100 | – | > 100 | – | – |
| COc1cc2c(cc1OC)C(C)N(C)c1c-2c(OC(C)=O)cc2cc(OC)c(OC)cc12 (stereo not given) | > 44.1 | 61.9 | > 100 | > 46.2 | > 68.5 | > 100 | 49.5 | 47.1 | 19.2 | 40.6 | > 100 | 35.6 | – | > 79 | > 78.2 | > 60.1 | > 60.1 | – | – |
| CN(CCCN(C)CCc1ccc(Cl)c(Cl)c1)CCCN1CCCC1 | 5.68 | 13.7 | 7.02 | 11.8 | 4.62 | 2.12 | 6.33 | 19 | 3.51 | – | 13.7 | 1.42 | – | 8.91 | 7.96 | 0.82 | 3.18 | – | – |
| CCOc1ncn(-c2ccc(NC(=S)NC34CC5CC(CC(C5)C3)C4)cc2)n1 | – | > 100 | > 100 | > 100 | – | > 100 | – | > 100 | > 100 | > 100 | > 100 | > 100 | > 100 | 76.2 | > 100 | > 100 | > 100 | – | – |
| COc1ccc(C2(O)c3ccccc3C(=O)N(C)C2(O)c2ccc(OC)cc2)cc1 (stereo not given) | – | > 100 | > 100 | > 100 | > 100 | > 100 | > 100 | > 100 | 74.9 | > 100 | > 100 | 42.2 | > 100 | – | > 100 | > 100 | > 100 | – | – |
